In ChEMBL document CHEMBL1201862, “PubChem BioAssay data set” (2004):
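Five concentrations, 48 hours, 96-well plates. Abbreviation: GI50, concentration required for 50% inhibition of growth.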 Active and inactive are the calls of the source. Cut-off read from the data, not from the text of the source: active = GI50 up to about 1.1 µM and inactive = higher. Where a SMILES comes first, the peptide text is derived from it. The star is where a group is joined. Boc = CC(C)(C)OC(=O)*

Legend:
Assay in all cases: inhibition of tumour cell growth, NCI panel, 48 h
HOP-18 = system: HOP-18
M19-MEL = system: M19-MEL
DLD-1 = system: DLD-1
MDA-MB-435 = system: MDA-MB-435
PC-3 = system: PC-3
MDA-MB-231 = system: MDA-MB-231
BT-549 = system: BT-549
Hs-578T = system: Hs-578T

Measured: GI50

CCCCc1c2cnccc2c(CCCC)c2c1[nH]c1ccccc12
inactive: HOP-18 3.59 µM | M19-MEL 12.4 µM | DLD-1 9.1 µM

Cc1ccc(N2Cc3c(ccc4ccccc34)OP2(=O)Oc2ccc(Cl)c(C)c2)cc1 (stereo not drawn)
inactive: HOP-18 > 61.1 µM | M19-MEL > 100 µM | DLD-1 > 41.8 µM

Cc1nc2ccc(S(=O)(=O)Nc3nccs3)cc2c(=O)n1NS(=O)(=O)c1nccs1
inactive: MDA-MB-435 40.3 µM | PC-3 86.9 µM | MDA-MB-231 > 100 µM | BT-549 > 100 µM | Hs-578T > 100 µM

NC(=O)c1ccccc1NC(=O)C(=O)C(c1cnc2ccc([N+](=O)[O-])cc2n1)[N+](=O)[O-] (stereo not drawn)
inactive: MDA-MB-435 > 100 µM | PC-3 > 100 µM | MDA-MB-231 > 100 µM | BT-549 > 100 µM | Hs-578T > 100 µM

CN1CN(c2ccccc2)C2(CCN(CCCC(=O)c3cccs3)CC2)C1=O
inactive: PC-3 94.8 µM | MDA-MB-231 50.9 µM

CCOC(=O)C(NC(=O)N(C1=NCC(C)S1)C1CCCCC1)(OC)C(F)(F)F (stereo not drawn)
inactive: MDA-MB-435 32.2 µM | PC-3 30.8 µM | MDA-MB-231 46.5 µM | BT-549 32.3 µM | Hs-578T 42.5 µM

COc1ccc(/N=C\c2cc(OC)c(OC)c(OC)c2)cc1
inactive: HOP-18 > 100 µM | M19-MEL > 100 µM | DLD-1 > 100 µM

CC(C)C(=O)/C=C/c1ccc(Br)cc1
inactive: M19-MEL 15.4 µM | DLD-1 7.31 µM

CC1(c2nc3ccccc3[nH]2)CCC(C#N)C(C)(C)O1 (stereo not drawn)
inactive: MDA-MB-435 > 100 µM | PC-3 > 100 µM | MDA-MB-231 > 100 µM | BT-549 > 100 µM | Hs-578T > 100 µM

COC(=O)[C@H](Cc1ccc(O)cc1)NC(=O)[C@H](Cc1ccc(O)cc1)NC(=O)OC(C)(C)C (Boc-Tyr-Tyr-OMe)
inactive: PC-3 > 100 µM | MDA-MB-231 60 µM | BT-549 > 100 µM | Hs-578T > 100 µM

CC(=O)[C@@]1(c2ccccc2)CC2(CCN(C)CC2)O[C@H]1C
inactive: MDA-MB-435 > 100 µM | MDA-MB-231 > 100 µM | BT-549 > 100 µM

O=CNCNCCO
inactive: BT-549 > 100 µM | Hs-578T > 100 µM

Cc1ccccc1N1C(=O)C2C=CC(n3[nH]c(=O)n(Cc4ccccc4)c3=O)CC2C1=O (stereo not drawn)
inactive: HOP-18 > 100 µM | M19-MEL > 100 µM | DLD-1 > 100 µM

COc1ccc(OCC(C)(C)O)cc1
inactive: HOP-18 > 100 µM | DLD-1 > 100 µM

Oc1cc(O)c2c(c1)O[C@H](c1ccc(O)c(O)c1)[C@@H](O)C2 [CIANIDANOL]
inactive: MDA-MB-435 > 100 µM | PC-3 > 100 µM | MDA-MB-231 > 100 µM | Hs-578T > 100 µM

N#CC1(c2nc3ccccc3o2)C(=O)C(=O)N(C2C3CC4CC(C3)CC2C4)C(=O)C1=O (stereo not drawn)
inactive: HOP-18 > 100 µM | M19-MEL > 100 µM

COc1cccc(/C=C2\C(=O)N(C(=O)Cc3ccccc3)N=C2C)c1
inactive: HOP-18 12.4 µM | M19-MEL > 100 µM | DLD-1 > 100 µM

COC(=O)Cc1c([C@H]2[C@H](CC(=O)OC)c3ccccc3N2C(=O)C(F)(F)F)[nH]c2ccccc12
inactive: MDA-MB-435 21.9 µM | PC-3 11.4 µM | MDA-MB-231 20.7 µM | BT-549 27.6 µM | Hs-578T 22.8 µM

S=P1(N2CCCCC2)Oc2ccc3ccccc3c2-c2c(ccc3ccccc23)O1
inactive: HOP-18 > 71.8 µM | M19-MEL 71 µM | DLD-1 91.2 µM

C=C(NC(=O)C(=C)NC(=O)c1ccc2c(n1)-c1coc(n1)C(=C)NC(=O)C(=C)NC(=O)c1nc(oc1C)C(=C)NC(=O)C(C(C)(C)O)NC(=O)C(=C)NC(=O)c1coc(n1)/C(=C/C)NC(=O)[C@H]([C@@H](C)O)NC(=O)c1csc-2n1)C(N)=O (stereo partly drawn)
inactive: MDA-MB-435 > 87.5 µM | PC-3 > 87.5 µM | MDA-MB-231 > 87.5 µM | BT-549 37.3 µM | Hs-578T > 87.5 µM

CC(C(=O)NCCNC(=O)CCC(=O)N(C)O)C(=O)NCCNC(=O)CCC(=O)N(C)O
inactive: MDA-MB-435 > 100 µM | PC-3 > 100 µM | MDA-MB-231 > 100 µM | Hs-578T > 100 µM

CS(=O)(=O)c1n[nH]c2nc(O)nc(O)c12
inactive: MDA-MB-435 > 10 µM | PC-3 > 10 µM | MDA-MB-231 > 10 µM | BT-549 > 10 µM | Hs-578T > 10 µM

COc1cc(C)cc(OC)c1/C=C/C(=O)O
inactive: MDA-MB-435 > 100 µM | PC-3 > 100 µM | MDA-MB-231 > 100 µM | BT-549 > 100 µM | Hs-578T 24.8 µM

C=CC[N+]12CN3CN(CN(C3)C1)C2
inactive: MDA-MB-435 19.7 µM | PC-3 31.4 µM | MDA-MB-231 32.2 µM | BT-549 26.7 µM | Hs-578T > 100 µM

c1ccc2c(c1)nnn2CNc1ccc(N2CCOCC2)cc1
inactive: HOP-18 > 100 µM | M19-MEL > 100 µM | DLD-1 > 100 µM

C=C1CC(C)(COc2ccc3c(C)c(C)c(=O)oc3c2C)OC1=O (stereo not drawn)
inactive: MDA-MB-435 2.7 µM | PC-3 2.27 µM | MDA-MB-231 2.52 µM | BT-549 1.5 µM | Hs-578T 1.9 µM

C#CCN1C(=O)CN2C(Cl)(Cl)C2(c2ccccc2)c2cc(Cl)ccc21 (stereo not drawn)
inactive: HOP-18 > 100 µM | M19-MEL 84.3 µM | DLD-1 45.3 µM

COc1ccc(N(C)C(=O)N(C)c2ccc([N+](=O)[O-])cc2)cc1
inactive: MDA-MB-435 4.21 µM | MDA-MB-231 45.3 µM | BT-549 44.8 µM | Hs-578T 6.4 µM
